Test results reported in US20150344407A1, “FENDILINE DERIVATIVES AND METHODS OF USE THEREOF” (THE BOARD OF REGENTS OF THE UNIVERSITY OF TEXAS SYSTEM, priority 2012, published 2015).
Counter-ions that a name gives are not always drawn.

Key:
[1] = target: T1, GFP-tagged K-rasG12V (oncogenic K-ras) in MDCK cells (Homo sapiens, UniProt P01116, G12V); assay: K-ras mislocalization, confocal fluorescence microscopy with densitometric analysis; format: cell-based, canine; details: 48 hours, MDCK cells stably expressing GFP-tagged K-rasG12V, normalized to vehicle-treated control; for inhibition at 4 µM: 4 μM compound, read-out: % Mislocalization of K-ras when treated with 4 μM compound
T1 construct: mGFP-tagged full length oncogenic mutant K-Ras (GFP-K-RasG12V); expressed in transfected cells
Protocol: FIGS. 1 & 2—Representative images showing degree of K-ras mislocalization with compound treatment (images corresponds with column 3 of Table 2). MDCK cells stably expressing GFP-tagged K-rasG12V were treated with vehicle or compound (4 μM) for 48 hours and fixed with 4% paraformaldehyde. The coverslips were mounted in Mowiol and imaged by confocal microscopy (Nikon A1) using a 60× objective. The number above each image corresponds the fendiline derivative code.
(§1) To determine the effect of compounds on localization of K-ras, Mardine Darby canine kidney epithelial (MDCK) cells stably expressing GFP-tagged K-rasG12V (oncogenic K-ras) grown on cover slips were treated with vehicle or compound (4 μM) for 48 hours and fixed with 4% paraformaldehyde. The coverslips were mounted in Mowiol and imaged by confocal microscopy (Nikon A1) using a 60× objective. Images were analyzed by ImageJ software. Densitometric analysis was performed on images to determine the degree of K-ras mislocalization. To determine the effect of compounds on K-ras function, MDCK cells stably expressing GFP-tagged K-rasG12V were treated with vehicle or compound (4 μM) for 48 hours. Following treatment, whole cell lysates were prepared and subjected SDS-PAGE and western blotting to quantify the level of phosphorylated ERK, a protein activated downstream of K-ras. All calculations were normalized to vehicle-treated control.
Fluorescence microscopy: 2×10^5 or 1×10^5 cells/well were seeded in 6- or 12-well cell culture plates, respectively, containing glass coverslips. 24 h after seeding, fresh medium containing 1% vehicle (Dimethyl sulfoxide, DMSO) or 4 μM test compound (1:100 dilution, such that DMSO was 1%) was added and incubated for 48 h, following which the cells were fixed with 4% paraformaldehyde and coverslips were mounted in Mowiol. Cells were imaged in the GFP wavelength (488 nm) using a confocal microscope (Nikon A1) with 60× objective. Images were saved in tagged imaged file format (tiff) and analyzed by ImageJ software. The densitometric ratio of plasma membrane localized K-Ras versus total K-Ras was calculated and normalized to vehicle-treated control.

[2] = test system: phosphorylated ERK, a protein activated downstream of K-ras; assay: Western immunoblotting for pERK (inhibition of ERK activation); format: cell-based, canine; details: Canis lupus familiaris; 4 μM compound, 48 hours, MDCK cells stably expressing GFP-tagged K-rasG12V; whole cell lysates; normalized to vehicle-treated control; read-out: % Inhibition of ERK activation when treated with 4 μM compound
Protocol: as §1
Western Immunoblotting for pERK: 2×10^5 cells/well were seeded in 6-well cell culture plates. 24 h after seeding, fresh medium containing 1% vehicle (DMSO) or 4 μM test compound (1:100 dilution, such that DMSO was 1%) was added and incubated for 48 h. Cells were lysed in Buffer B (50 mM Tris [pH 7.5], 75 mM NaCl, 25 mM NaF, 5 mM MgCl2, 5 mM EGTA, 1 mM dithiothreitol, 100 μM NaVO4, 1% Nonidet P-40 plus protease inhibitors). SDS-PAGE and immunoblotting with the anti-phospho-p44/42 mitogen-activated protein kinase (MAPK) (ERK1/2) antibody was performed using 20 μg of each whole cell lysate. Signal was detected by enhanced chemiluminescence (SuperSignal; Pierce, Thermo Fisher Scientific, Rockford, Ill.) and imaged by FluorChemQ (Alpha Inotech, San Leandro, Calif.). Quantification of intensities was performed using FluorChemQ software. Results were normalized to vehicle-treated control.

inhibition at 4 µM [1] [%] | % Mislocalization of K-ras when treated with 4 μM compound [1] [%] | SMILES | inhibition at 4 µM [2] [%]
16.5 |  | C[C@H](NC/C=C/c1ccccc1)c1ccccc1 [Compound 19, (S,E)-3-phenyl-N-(1-phenylethyl)prop-2-en-1-amine] | 11.3
14.6 |  | CC(C)=CCC/C(C)=C/CO[C@H](C)c1ccccc1 [Compound 20, (R,E)-(1-((3,7-dimethylocta-2,6-dien-1-yl)oxy)ethyl)benzene] | -5.12
8.29 |  | CC(C)=CCC/C(C)=C/CN[C@H](C)c1ccccc1 [Compound 21, (R,E)-3,7-dimethyl-N-(1-phenylethyl)octa-2,6-dien-1-amine] | 3.75
8.14 |  | C[C@@H](OCC=C(c1ccccc1)c1ccccc1)c1ccccc1 [Compound 22, (R)-(3-(1-phenylethoxy)prop-1-ene-1,1-diyl)dibenzene] | -14.4
10.3 |  | C[C@H](OCC=C(c1ccccc1)c1ccccc1)c1ccccc1 [Compound 23, (S)-(3-(1-phenylethoxy)prop-1-ene-1,1-diyl)dibenzene] | -0.95
18 |  | C[C@@H](OC/C=C/c1ccccc1)c1ccccc1 [Compound 24, (R,E)-(1-(cinnamyloxy)ethyl)benzene] | 7.19
33.9 |  | C[C@H](OC/C=C/c1ccccc1)c1ccccc1 [Compound 25, (S,E)-(1-(cinnamyloxy)ethyl)benzene] | 56.8
44.8 |  | CC(NCC=C(c1ccccc1)c1ccccc1)c1ccc(Br)cc1 (stereo not drawn) [Compound 26, N-(1-(4-bromophenyl)ethyl)-3,3-diphenylprop-2-en-1-amine] | 43.5
45.2 |  | CC(NCC=C(c1ccccc1)c1ccccc1)c1ccc(F)cc1 (stereo not drawn) [Compound 27, N-(1-(4-fluorophenyl)ethyl)-3,3-diphenylprop-2-en-1-amine] | 49.3
34.9 |  | CC(C)=CCC/C(C)=C/CC/C(C)=C/CN[C@H](C)c1ccccc1 [Compound 28, (2E,6E)-3,7,11-trimethyl-N—((R)-1-phenylethyl)dodeca-2,6,10-trien-1-amine] | 38
37 |  | CCC(NCC=C(c1ccccc1)c1ccccc1)c1ccccc1 (stereo not drawn) [Compound 29, 3,3-diphenyl-N-(1-phenylpropyl)prop-2-en-1-amine hydrochloride] | 40.3
26.5 |  | CC(CNCC=C(c1ccccc1)c1ccccc1)c1ccccc1 (stereo not drawn) [Compound 30, 3,3-diphenyl-N-(2-phenylpropyl)prop-2-en-1-amine] | 49.1
6.36 |  | C[C@@H](NC/C=C/c1ccc(-c2ccccc2)cc1)c1ccccc1 [Compound 31, (R,E)-3-([1,1′-biphenyl]-4-yl)-N-(1-phenylethyl)prop-2-en-1-amine] | 35.6
12.5 |  | C[C@@H](NC/C=C/c1cccc2ccccc12)c1ccccc1 [Compound 32, (R,E)-3-(naphthalen-1-yl)-N-(1-phenylethyl)prop-2-en-1-amine] | 31.7
1.53 |  | C[C@@H](NC/C=C/c1ccc2ccccc2c1)c1ccccc1 [Compound 33, (R,E)-3-(naphthalen-2-yl)-N-(1-phenylethyl)prop-2-en-1-amine] | 15.7
7.94 |  | C[C@@H](NC/C=C/c1ccccc1)c1cccc2ccccc12 [Compound 34, (R,E)-N-(1-(naphthalen-1-yl)ethyl)-3-phenylprop-2-en-1-amine] | 18.9
26.1 |  | C[C@@H](NC/C=C/c1ccccc1)c1ccc2ccccc2c1 [Compound 35, (R,E)-N-(1-(naphthalen-2-yl)ethyl)-3-phenylprop-2-en-1-amine] | -21.6
6.82 |  | C/C=C(/CN[C@H](C)c1ccccc1)c1ccccc1 [Compound 37, (R,E)-2-phenyl-N-(1-phenylethyl)but-2-en-1-amine] | 18.9

More lines, now with the values behind:

SMILES | inhibition at 4 µM [1] [%] | % Mislocalization of K-ras when treated with 4 μM compound [1] [%] | inhibition at 4 µM [2] [%]
CC(C(=O)NCC(c1ccccc1)c1ccccc1)c1ccccc1 (stereo not drawn) [Compound 02] | 13.2 |  | 
C[C@@H](NC(=O)CC(c1ccccc1)c1ccccc1)c1ccccc1 [Compound 03, (R)-3,3-diphenyl-N-(1-phenylethyl)propanamide] | 25.8 |  | 
C[C@H](NC(=O)CC(c1ccccc1)c1ccccc1)c1ccccc1 [Compound 04, (S)-3,3-diphenyl-N-(1-phenylethyl)propanamide] | 9.73 |  | 
O=C(CC(c1ccccc1)c1ccccc1)NCc1ccccc1 [Compound 05, N-benzyl-3,3-diphenylpropanamide] | 4.01 |  | 
CC(NC(=O)CCc1ccccc1)c1ccccc1 (stereo not drawn) [Compound 06, 3-phenyl-N-(1-phenylethyl)propanamide] | 28.9 |  | 
CC(CNCC(c1ccccc1)c1ccccc1)c1ccccc1 (stereo not drawn) [Compound 07, N-(2,2-diphenylethyl)-2-phenylpropan-1 amine hydrochloride] | 21.9 |  | 
C[C@@H](NCCC(c1ccccc1)c1ccccc1)c1ccccc1.Cl [Compound 08, (R)-3,3-diphenyl-N-(1-phenylethyl)propan-1-amine hydrochloride] |  | 36.05 | 38.2
C[C@H](NCCC(c1ccccc1)c1ccccc1)c1ccccc1.Cl [Compound 09, (S)-3,3-diphenyl-N-(1-phenylethyl)propan-1-amine hydrochloride] |  | 20.41 | 
c1ccc(CNCCC(c2ccccc2)c2ccccc2)cc1 [Compound 10, N-benzyl-3,3-diphenylpropan-1-amine] | 20.2 |  | 
CC(NCCCc1ccccc1)c1ccccc1 (stereo not drawn) [Compound 11, 3-phenyl-N-(1-phenylethyl)propan-1-amine hydrochloride] | 32.4 |  | 42.9
CC(NCC=C(c1ccccc1)c1ccccc1)c1ccccc1 (stereo not drawn) [Compound 12, 3,3-diphenyl-N-(1-phenylethyl)prop-2-en-1-amine hydrochloride] | 37.7 |  | 55.1
CC(OCCC(c1ccccc1)c1ccccc1)c1ccccc1 (stereo not drawn) [Compound 13] | 32 |  | 28.9
CC(NC(=O)CC(c1ccccc1)c1ccccc1)c1cccs1 (stereo not drawn) [Compound 14, 3,3-diphenyl-N-(1-(thiophen-2-yl)ethyl)propanamide] | 23.3 |  | 
CC(NCCC(c1ccccc1)c1ccccc1)c1cccs1 (stereo not drawn) [Compound 15, 3,3-diphenyl-N-(1-(thiophen-2-yl)ethyl)propan-1-amine hydrochloride] | 25.1 |  | 
C[C@@H](NCC=C(c1ccccc1)c1ccccc1)c1ccccc1 [Compound 16, (R)-3,3-diphenyl-N-(1-phenylethyl)prop-2-en-1-amine] | 39.3 |  | 58.4
C[C@H](NCC=C(c1ccccc1)c1ccccc1)c1ccccc1 [Compound 17, (S)-3,3-diphenyl-N-(1-phenylethyl)prop-2-en-1-amine] | 8.27 |  | -51.9
C[C@@H](NC/C=C/c1ccccc1)c1ccccc1 [Compound 18, (R,E)-3-phenyl-N-(1-phenylethyl)prop-2-en-1-amine] | 17.6 |  | -2.54
